Measured values from the NIST ThermoML archive (doi:10.1016/j.jct.2018.11.011).
Several values for one entry are separate records, joined by “and”; a condition that tells them apart may be missing. Identical values can stand only once. ± gives the expanded uncertainty stated by the source.

Assay: molar heat capacity at constant pressure
Settings: 101.33 kPa

O=C([O][Sb]([c]1ccccc1)([c]1ccccc1)([c]1ccccc1)[c]1ccccc1)c1ccccc1 [tetraphenylantimony benzoate]
Settings | molar heat capacity at constant pressure
175 K, Crystal, Small (less than 1 g) adiabatic calorimetry | 350 ± 1.8 J/K/mol
179.52 K, Crystal, Small (less than 1 g) adiabatic calorimetry | 354.2 ± 1.8 J/K/mol
180 K, Crystal, Small (less than 1 g) adiabatic calorimetry | 355.4 ± 1.8 J/K/mol
182.77 K, Crystal, Small (less than 1 g) adiabatic calorimetry | 359.3 ± 1.8 J/K/mol
187 K, Crystal, Small (less than 1 g) adiabatic calorimetry | 368 ± 1.9 J/K/mol
190 K, Crystal, Small (less than 1 g) adiabatic calorimetry | 372 ± 1.9 J/K/mol
193.46 K, Crystal, Small (less than 1 g) adiabatic calorimetry | 377.4 ± 1.9 J/K/mol
196.73 K, Crystal, Small (less than 1 g) adiabatic calorimetry | 382.6 ± 2 J/K/mol
200 K, Crystal, Small (less than 1 g) adiabatic calorimetry | 387 ± 2 J/K/mol and 387.6 ± 2 J/K/mol
203.22 K, Crystal, Small (less than 1 g) adiabatic calorimetry | 393.1 ± 2 J/K/mol
206.89 K, Crystal, Small (less than 1 g) adiabatic calorimetry | 398.7 ± 2.1 J/K/mol
210 K, Crystal, Small (less than 1 g) adiabatic calorimetry | 402 ± 2.1 J/K/mol
212.74 K, Crystal, Small (less than 1 g) adiabatic calorimetry | 408.9 ± 2.1 J/K/mol
216.41 K, Crystal, Small (less than 1 g) adiabatic calorimetry | 416 ± 2.2 J/K/mol
218 K, Crystal, Small (less than 1 g) adiabatic calorimetry | 417 ± 2.2 J/K/mol
220 K, Crystal, Small (less than 1 g) adiabatic calorimetry | 420.9 ± 2.2 J/K/mol
221.7 K, Crystal, Small (less than 1 g) adiabatic calorimetry | 424.2 ± 2.2 J/K/mol
226.59 K, Crystal, Small (less than 1 g) adiabatic calorimetry | 431.9 ± 2.2 J/K/mol
230.26 K, Crystal, Small (less than 1 g) adiabatic calorimetry | 438 ± 2.2 J/K/mol
233.93 K, Crystal, Small (less than 1 g) adiabatic calorimetry | 444.7 ± 2.2 J/K/mol
237.6 K, Crystal, Small (less than 1 g) adiabatic calorimetry | 451.8 ± 2.3 J/K/mol
240 K, Crystal, Small (less than 1 g) adiabatic calorimetry | 455.1 ± 2.3 J/K/mol
241.26 K, Crystal, Small (less than 1 g) adiabatic calorimetry | 457.5 ± 2.3 J/K/mol
244.92 K, Crystal, Small (less than 1 g) adiabatic calorimetry | 464.4 ± 2.3 J/K/mol
248.56 K, Crystal, Small (less than 1 g) adiabatic calorimetry | 469.4 ± 2.4 J/K/mol
252.2 K, Crystal, Small (less than 1 g) adiabatic calorimetry | 476.9 ± 2.4 J/K/mol
255.84 K, Crystal, Small (less than 1 g) adiabatic calorimetry | 483.2 ± 2.4 J/K/mol
259.46 K, Crystal, Small (less than 1 g) adiabatic calorimetry | 489.4 ± 2.5 J/K/mol
260 K, Crystal, Small (less than 1 g) adiabatic calorimetry | 491.6 ± 2.5 J/K/mol
260.21 K, Crystal, Small (less than 1 g) adiabatic calorimetry | 492.1 ± 2.5 J/K/mol
263.38 K, Crystal, Small (less than 1 g) adiabatic calorimetry | 496.3 ± 2.5 J/K/mol
266.99 K, Crystal, Small (less than 1 g) adiabatic calorimetry | 503.4 ± 2.6 J/K/mol
270.59 K, Crystal, Small (less than 1 g) adiabatic calorimetry | 511.1 ± 2.6 J/K/mol
273.15 K, Crystal, Small (less than 1 g) adiabatic calorimetry | 514.4 ± 2.6 J/K/mol
274.19 K, Crystal, Small (less than 1 g) adiabatic calorimetry | 516.9 ± 2.6 J/K/mol
277.77 K, Crystal, Small (less than 1 g) adiabatic calorimetry | 523.1 ± 2.7 J/K/mol
280 K, Crystal, Small (less than 1 g) adiabatic calorimetry | 527.1 ± 2.7 J/K/mol
281.34 K, Crystal, Small (less than 1 g) adiabatic calorimetry | 529.8 ± 2.7 J/K/mol
284.91 K, Crystal, Small (less than 1 g) adiabatic calorimetry | 536.8 ± 2.7 J/K/mol
288.45 K, Crystal, Small (less than 1 g) adiabatic calorimetry | 544.3 ± 2.7 J/K/mol
291.98 K, Crystal, Small (less than 1 g) adiabatic calorimetry | 551.8 ± 2.8 J/K/mol
295.51 K, Crystal, Small (less than 1 g) adiabatic calorimetry | 558.6 ± 2.8 J/K/mol
298.15 K, Crystal, Small (less than 1 g) adiabatic calorimetry | 564.4 ± 2.8 J/K/mol
299.02 K, Crystal, Small (less than 1 g) adiabatic calorimetry | 565.4 ± 2.8 J/K/mol
300 K, Crystal, Small (less than 1 g) adiabatic calorimetry | 568.4 ± 2.9 J/K/mol
302.51 K, Crystal, Small (less than 1 g) adiabatic calorimetry | 572.4 ± 2.9 J/K/mol
305.98 K, Crystal, Small (less than 1 g) adiabatic calorimetry | 579.5 ± 2.9 J/K/mol
309.1 K, Crystal, Small (less than 1 g) adiabatic calorimetry | 585.3 ± 3 J/K/mol
312.86 K, Crystal, Small (less than 1 g) adiabatic calorimetry | 594.4 ± 3 J/K/mol
316.25 K, Crystal, Small (less than 1 g) adiabatic calorimetry | 601.1 ± 3 J/K/mol
319.65 K, Crystal, Small (less than 1 g) adiabatic calorimetry | 610.9 ± 3.1 J/K/mol
320 K, Crystal, Small (less than 1 g) adiabatic calorimetry | 611.4 ± 3.1 J/K/mol
321.5 K, Crystal, DSC | 615 ± 33 J/K/mol
323.03 K, Crystal, Small (less than 1 g) adiabatic calorimetry | 617.6 ± 3.1 J/K/mol
324.5 K, Crystal, DSC | 621 ± 33 J/K/mol
326.38 K, Crystal, Small (less than 1 g) adiabatic calorimetry | 625.6 ± 3.2 J/K/mol
327.5 K, Crystal, DSC | 627 ± 33 J/K/mol
329.73 K, Crystal, Small (less than 1 g) adiabatic calorimetry | 632 ± 3.2 J/K/mol
330.5 K, Crystal, DSC | 634 ± 34 J/K/mol
333.07 K, Crystal, Small (less than 1 g) adiabatic calorimetry | 638.8 ± 3.2 J/K/mol
333.5 K, Crystal, DSC | 639 ± 34 J/K/mol
336.5 K, Crystal, DSC | 645 ± 34 J/K/mol
337.11 K, Crystal, Small (less than 1 g) adiabatic calorimetry | 646.4 ± 3.2 J/K/mol
339.5 K, Crystal, DSC | 649 ± 35 J/K/mol
340 K, Crystal, Small (less than 1 g) adiabatic calorimetry | 650 ± 26 J/K/mol
342.5 K, Crystal, DSC | 656 ± 35 J/K/mol
345.5 K, Crystal, DSC | 660 ± 35 J/K/mol
348.5 K, Crystal, DSC | 666 ± 36 J/K/mol
351.5 K, Crystal, DSC | 671 ± 36 J/K/mol
354.5 K, Crystal, DSC | 678 ± 37 J/K/mol
357.5 K, Crystal, DSC | 683 ± 37 J/K/mol
360 K, Crystal, Small (less than 1 g) adiabatic calorimetry | 688 ± 27 J/K/mol
360.5 K, Crystal, DSC | 689 ± 37 J/K/mol
368.5 K, Crystal, DSC | 709 ± 38 J/K/mol
377.2 K, Crystal, DSC | 731 ± 39 J/K/mol
380 K, Crystal, Small (less than 1 g) adiabatic calorimetry | 736 ± 30 J/K/mol
387.3 K, Crystal, DSC | 755 ± 41 J/K/mol
397.5 K, Crystal, DSC | 780 ± 42 J/K/mol
400 K, Crystal, Small (less than 1 g) adiabatic calorimetry | 788 ± 32 J/K/mol
402.5 K, Crystal, DSC | 793 ± 42 J/K/mol
405.5 K, Crystal, DSC | 800 ± 42 J/K/mol
408.5 K, Crystal, DSC | 806 ± 43 J/K/mol
411.5 K, Crystal, DSC | 830 ± 47 J/K/mol
420 K, Crystal, Small (less than 1 g) adiabatic calorimetry | 800 ± 33 J/K/mol
437.5 K, Crystal, Small (less than 1 g) adiabatic calorimetry | 873 ± 33 J/K/mol
437.5 K, Liquid, DSC | 973 ± 50 J/K/mol
440 K, Liquid, DSC | 973 ± 50 J/K/mol
445.5 K, Liquid, DSC | 989 ± 50 J/K/mol
447.5 K, Liquid, DSC | 981 ± 50 J/K/mol
450.5 K, Liquid, DSC | 973 ± 50 J/K/mol
453.5 K, Liquid, DSC | 973 ± 50 J/K/mol
456.5 K, Liquid, DSC | 973 ± 50 J/K/mol
459.5 K, Liquid, DSC | 973 ± 50 J/K/mol
460 K, Liquid, DSC | 973 ± 50 J/K/mol
462.5 K, Liquid, DSC | 973 ± 50 J/K/mol
465.5 K, Liquid, DSC | 973 ± 50 J/K/mol
468.5 K, Liquid, DSC | 973 ± 50 J/K/mol
471.5 K, Liquid, DSC | 973 ± 50 J/K/mol
474.5 K, Liquid, DSC | 973 ± 50 J/K/mol
477.5 K, Liquid, DSC | 973 ± 50 J/K/mol
480 K, Liquid, DSC | 973 ± 50 J/K/mol
480.5 K, Liquid, DSC | 973 ± 50 J/K/mol
